The source of these data is patent publication US20220274914A1, “TRICYCLIC DERIVATIVES AS HYPOXIA INDUCIBLE FACTOR-2(ALPHA) INHIBITORS” (NIKANG THERAPEUTICS, INC., priority 2019, published 2022).

For this experiment, the target named is T1, HIF-2α (Homo sapiens, UniProt Q99814).
T1 construct: endogenous in cells; host or cells: 786-0 cells
The experiment is described as follows: VEGF ELISA Assay. The experiment is classed as cell-based. Particulars: VEGF expression in 786-0 cells; VEGF in culture medium by ELISA; four parameter dose-response fit. The protocol: The ability of the disclosed compounds to inhibit HIF-2α was measured by determining VEGF expression in 786-0 cells. About 7500 786-0 cells were seeded into each well of a 96-well, white, clear bottom plate (07-200-566, Fisher Scientific) with 200 ul growth medium. Four hours later, compounds were dispensed into wells by Tecan D300e digital dispenser with starting concentration of 10 uM and […] of dilution down to 1 nM as final concentration. Each concentration of treatment was performed in duplicate. About 20 hours later, medium was removed and fresh medium was added, followed by compounds treatment as described above. 24 hours later, cell culture medium was collected to determine VEGF concentration using an ELISA kit (R&D systems, cat #DVE00) following the manufacturer's instruction.
The EC50 is calculated by GraphPad Prism using the dose-response-inhibition (four parameter) equation. The plate with cells was then subjected to CellTiter-Glo luminescence cell viability assay (Promega) to determine the effect of these compounds on cell numbers after the above treatment.
Background: An ELISA detects its analyte on a solid surface through an enzyme-linked reagent.

T1 sequence (Q99814 whole entry): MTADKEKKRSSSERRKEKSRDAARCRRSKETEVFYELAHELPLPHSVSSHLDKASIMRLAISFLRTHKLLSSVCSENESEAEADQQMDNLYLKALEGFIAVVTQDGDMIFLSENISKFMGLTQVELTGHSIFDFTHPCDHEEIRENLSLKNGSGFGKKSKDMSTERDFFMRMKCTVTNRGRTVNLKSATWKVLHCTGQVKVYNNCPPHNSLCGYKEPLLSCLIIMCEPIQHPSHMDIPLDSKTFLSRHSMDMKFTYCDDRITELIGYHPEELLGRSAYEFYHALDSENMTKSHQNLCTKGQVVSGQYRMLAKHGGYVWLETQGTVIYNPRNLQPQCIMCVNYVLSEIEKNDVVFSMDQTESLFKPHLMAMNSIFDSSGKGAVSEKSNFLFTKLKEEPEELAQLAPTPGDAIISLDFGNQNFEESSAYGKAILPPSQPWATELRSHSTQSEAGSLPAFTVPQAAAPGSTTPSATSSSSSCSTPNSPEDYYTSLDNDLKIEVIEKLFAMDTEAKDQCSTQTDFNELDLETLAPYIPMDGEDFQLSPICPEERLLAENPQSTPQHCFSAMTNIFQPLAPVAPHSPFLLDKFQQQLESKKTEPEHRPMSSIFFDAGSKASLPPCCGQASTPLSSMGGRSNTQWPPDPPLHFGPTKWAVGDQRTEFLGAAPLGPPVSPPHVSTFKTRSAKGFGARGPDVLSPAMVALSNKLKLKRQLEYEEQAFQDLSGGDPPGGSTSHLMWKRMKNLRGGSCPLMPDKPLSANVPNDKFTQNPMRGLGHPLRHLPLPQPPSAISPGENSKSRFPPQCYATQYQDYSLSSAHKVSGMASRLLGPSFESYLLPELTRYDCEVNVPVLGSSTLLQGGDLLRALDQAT

In the case of `N#Cc1cc(F)cc(Oc2ccc3c4c2CCC[C@]4(O)C(F)(F)C3(F)F)c1` [Compound 2, (R)-3-fluoro-5-((1,1,2,2-tetrafluoro-8a-hydroxy-1,2,6,7,8,8a-hexahydroacenaphthylen-5-yl)oxy)benzonitrile], the half-maximal effective concentration (EC50) (in general, the midpoint of the concentration-response curve) worked out at 6 nM.
As for `CC1CCC2(O)c3c(ccc(Oc4cc(F)cc(C#N)c4)c31)C(F)(F)C2(F)F` (single isomer, unassigned) [the other of 7-1 and 7-2], it took 3050 nM to reach a half-maximal effect (EC50).
Take `CC1CCC2(O)c3c(ccc(Oc4cc(F)cc(C#N)c4)c31)C(F)(F)C2(F)F` (single isomer, unassigned) [one of 7-1 and 7-2]: it took 372 nM to reach a half-maximal effect (EC50).
With `C=C1CCC2(O)c3c(ccc(Oc4cc(F)cc(C#N)c4)c31)C(F)(F)C2(F)F` (stereo not drawn) [Compound 3, 3-fluoro-5-((1,1,2,2-tetrafluoro-8a-hydroxy-6-methylene-1,2,6,7,8,8a-hexahydroacenaphthylen-5-yl)oxy)benzonitrile], the concentration for a half-maximal effect (EC50) was 534 nM.
`N#Cc1cc(F)cc(Oc2ccc3c4c2C(F)C(F)(F)CC4(O)C(F)(F)C3(F)F)c1` (stereo not drawn) [8-1 or 8-2] showed an EC50 of 23 nM.
The compound `N#Cc1cc(F)cc(Oc2ccc3c4c2CCCC4(O)C(F)(F)C3(F)F)c1` (stereo not drawn) [Compound 1, 3-fluoro-5-((1,1,2,2-tetrafluoro-8a-hydroxy-1,2,6,7,8,8a-hexahydroacenaphthylen-5-yl)oxy)benzonitrile] came in with an EC50 of 37 nM.
